# From patent US6107316A, “Method for treating protozoal infections” (priority 1998, dated 2000)
# Tests used:
# [1] = toxicity towards MDBKF5D2 host cells (MTS); details: bovine, mdbkf5d2 cells, Cytotoxicity (percent toxicity)
# Description: Compounds were tested for in vitro growth inhibitory activity against C. parvum grown in host MDBKF5D2 cells and for toxicity towards the host cells as follows. […] To test for toxicity towards the host cells, the media containing test compound (200 μl) were introduced into two wells of a 96 well microtiter plate containing confluent MDBKF5D2 cell monolayers and two wells without monolayers, and incubated at 37° C. in an 8% carbon dioxide environment. After 48 hours, the tetrazolium salt MTS (Owen's solution) and phenazine methosulfate were added to each well at concentrations of 333 μg/ml and 25 μM, respectively. The plate was returned to the incubator in the dark to develop for 2 hours, then 100 μl of each supernatant was transferred to a new microtiter plate and read spectrophotometrically in a plate reader at a wavelength of 490 nm. Percent toxicity was calculated by subtracting the mean optical density (OD) of the drug supernatants from the OD of medium control supernatants (no drug), dividing by the OD of the medium control, and multiplying by 100. To test for growth inhibitory activity against C. parvum, 3×10^4 oocysts per well were incubated in mentioned concentrations of each drug at 37° C. (8% CO2) on confluent MDBKF5D2 cell monolayers in 96 well microtiter plates. After 48 hours, the level of infection in each well was determined by means of an immunofluorescence assay. Percent inhibition of growth was calculated by subtracting the mean parasite count in the wells containing test compound from the mean parasite count in the medium control wells (no test compound), dividing by the mean parasite count in the medium control wells, and multiplying by 100. Paromomycin was included in the test as a standard.
# [2] = tested on: Encephalitozoon (Septata) intestinalis; test: growth inhibitory activity against E. intestinalis grown on Vero cells (spore count); format: cell-based; details: 336 h, 1.0 μg/ml, spore number after 2 weeks, read-out: Growth (% of control)
# Description: Compounds 2, 10 and 15 were tested for i,7 vitro growth inhibitory activity against E. intestinalis, grown on African green monkey kidney cells (Vero cells). Vero cells were grown in 25-cm^2 culture flasks at 37° C. in a humidified 5% carbon dioxide incubator. Cultures were maintained in minimal essential medium (Gibco BRL, Gaithersburg, Md., U.S.A.), supplemented with L-glutamine, Earle's salts, 5% heat-inactivated foetal calf serum (Hyclone Labs, Inc., U.S.A.), fungizone (2 μg/ml, Gibco BRL) and gentamicin (50 μg/ml, Gibco BRL). E. intestinalis spores were collected from the supernatant of an infected Vero cell culture and were used to infect normal cells to produce a fresh spore preparation for growth inhibition tests.
# Growth inhibition tests were performed in 24-well culture plates. One ml of Vero cells (5×10^4 cells per ml) was placed in each well and the cells incubated for 12-15 hours at 37° C. The supernatant medium was then removed and replaced with 1 ml of medium containing 1.5-2.0×10^4 E. intestinalis spores per ml along with 1 μl of test compound dissolved in dimethylsulfoxide (DMSO) or DMSO alone for the control treatments without test compound. The plates were incubated at 37° C. and the medium was changed every 72 h along with fresh test compound in DMSO or DMSO alone (controls). After 2 weeks the supernatant was transferred from each well to a microcentiifuge tube, then concentrated by centrifugation with resuspension of the resulting E. intestinalis spore pellet in 300-500 μl fresh medium. The spore number in each sample was then determined by counting in a hemocytometer. The results in Table 11 show the effects of the test compounds on the number of spores and are expressed as a percentage of the spore number in the control treatment without test compound.
SMILES,"cytotoxicity at 48 h, 0.1 µM [1] [%]","cytotoxicity at 48 h, 1 µM [1] [%]","cytotoxicity at 48 h, 10 µM [1] [%]","cytotoxicity at 48 h, 100 µM [1] [%]",activity at 1 µg/mL [2] [%]
CCC(C)(NC(=O)c1cc(Cl)c(N)c(Cl)c1)C(=O)CCl (stereo not drawn) [Compound 1],0,0,19.9,35.7,–
CCC(C)(NC(=O)c1cc(Cl)c(F)c(Cl)c1)C(=O)CCl (stereo not drawn) [Compound 9],6.7,0,0,81.4,–
CCC(C)(NC(=O)c1cc(Cl)c(C)c(Cl)c1)C(=O)CCl (stereo not drawn) [Compound 10],–,–,–,–,20
